Reference: ChEMBL document CHEMBL4219213, “The design, synthesis and structure-activity relationships associated with C28 amine-based betulinic acid derivatives as inhibitors of HIV-1 maturation” (Bioorg Med Chem Lett, 2018)

Columns and labels:
[1] = cells; conditions: Human immunodeficiency virus 1, subtype B NL4-3, MT2
[2] = in vitro; conditions: rat, liver microsomes
Description: Half life in rat liver microsomes at 0.5 uM in presence of NADPH by LC-MS/MS method

[3] = in vitro; conditions: human, liver microsomes
Description: Half life in human liver microsomes at 0.5 uM in presence of NADPH by LC-MS/MS method

[4] = in vitro; conditions: mouse, liver microsomes
Description: Half life in mouse liver microsomes at 0.5 uM in presence of NADPH by LC-MS/MS method

[5] = in vivo; conditions: Sprague-Dawley, rat, po, 5 mg/kg
[6] = in vitro; conditions: human, MT2 cells
Description: Cytotoxicity against human MT2 cells

For `C=C(C)[C@@H]1CC[C@]2(C(=O)O)CC[C@]3(C)[C@H](CC[C@@H]4[C@@]5(C)CC=C(c6ccc(C(=O)O)cc6)C(C)(C)[C@@H]5CC[C@]43C)[C@@H]12`, the IC50 [1] was > 6 µM, the half-life at 0.5 µM [2] was > 2 h and the half-life at 0.5 µM [3] was > 2 h. The half-life at 0.5 µM [4] was > 2 h.
Work on `C=C(C)[C@@H]1CC[C@]2(CNCCCN3CCCC3=O)CC[C@]3(C)[C@H](CC[C@@H]4[C@@]5(C)CC=C(c6ccc(C(=O)O)cc6)C(C)(C)[C@@H]5CC[C@]43C)[C@@H]12` yielded an IC50 [1] of 0.0099 µM, an AUC(0-t) at 6 h [5] of 1.04 µM·h and a CC50 [6] of 5.8 µM.
In the case of `C=C(C)[C@@H]1CC[C@]2(CN(CCCN3CCS(=O)(=O)CC3)C3CC3)CC[C@]3(C)[C@H](CC[C@@H]4[C@@]5(C)CC=C(c6ccc(C(=O)O)cc6)C(C)(C)[C@@H]5CC[C@]43C)[C@@H]12`, the IC50 [1] is reported as 0.043 µM, the CC50 [6] is reported as 7 µM and the half-life at 0.5 µM [2] is reported as > 2 h. The half-life at 0.5 µM [3] was > 2 h and the half-life at 0.5 µM [4] was > 2 h.
With `C=C(C)[C@@H]1CC[C@]2(CNCCN3CCCCC3)CC[C@]3(C)[C@H](CC[C@@H]4[C@@]5(C)CC=C(c6ccc(C(=O)O)cc6)C(C)(C)[C@@H]5CC[C@]43C)[C@@H]12` the IC50 [1] was 0.037 µM and the CC50 [6] was 4 µM.
In the case of `C=C(C)[C@@H]1CC[C@]2(CNCCc3ccc(S(N)(=O)=O)cc3)CC[C@]3(C)[C@H](CC[C@@H]4[C@@]5(C)CC=C(c6ccc(C(=O)O)cc6)C(C)(C)[C@@H]5CC[C@]43C)[C@@H]12`, the IC50 [1] is reported as 0.016 µM, the AUC(0-t) at 6 h [5] is reported as 0.288 µM·h and the CC50 [6] is reported as 2.4 µM.
Work on `C=C(C)[C@@H]1CC[C@]2(CNCCN3CCS(=O)(=O)CC3)CC[C@]3(C)[C@H](CC[C@@H]4[C@@]5(C)CC=C(c6ccc(C(=O)O)cc6)C(C)(C)[C@@H]5CC[C@]43C)[C@@H]12` yielded an IC50 [1] of 0.006 µM, an AUC(0-t) at 6 h [5] of 2.05 µM·h and a CC50 [6] of 2.6 µM. For the same compound, the half-life at 0.5 µM [2] was 1.8 h, the half-life at 0.5 µM [3] was > 2 h and the half-life at 0.5 µM [4] was > 2 h.
With `C=C(C)[C@@H]1CC[C@]2(CNCCN3CCNCC3)CC[C@]3(C)[C@H](CC[C@@H]4[C@@]5(C)CC=C(c6ccc(C(=O)O)cc6)C(C)(C)[C@@H]5CC[C@]43C)[C@@H]12` the CC50 [6] was 2.3 µM, the half-life at 0.5 µM [2] was 1.43 h and the half-life at 0.5 µM [3] was > 2 h.
Work on `C=C(C)[C@@H]1CC[C@]2(CNCCNC(C)=O)CC[C@]3(C)[C@H](CC[C@@H]4[C@@]5(C)CC=C(c6ccc(C(=O)O)cc6)C(C)(C)[C@@H]5CC[C@]43C)[C@@H]12` yielded an IC50 [1] of 0.037 µM and a CC50 [6] of 6.3 µM.
For `C=C(C)[C@@H]1CC[C@]2(CNCCCN3CCN(C)CC3)CC[C@]3(C)[C@H](CC[C@@H]4[C@@]5(C)CC=C(c6ccc(C(=O)O)cc6)C(C)(C)[C@@H]5CC[C@]43C)[C@@H]12`, the IC50 [1] was 0.016 µM, the CC50 [6] was 0.7 µM and the half-life at 0.5 µM [2] was > 2 h. The half-life at 0.5 µM [3] was > 2 h and the half-life at 0.5 µM [4] was > 2 h.
For `C=C(C)[C@@H]1CC[C@]2(CNCCCNCCO)CC[C@]3(C)[C@H](CC[C@@H]4[C@@]5(C)CC=C(c6ccc(C(=O)O)cc6)C(C)(C)[C@@H]5CC[C@]43C)[C@@H]12`, the IC50 [1] was 0.018 µM, the CC50 [6] was 0.32 µM and the half-life at 0.5 µM [2] was > 2 h. For the same compound, the half-life at 0.5 µM [3] was > 2 h.
In the case of `C=C(C)[C@@H]1CC[C@]2(CN(CCN(C)C)C(=O)CCC(=O)O)CC[C@]3(C)[C@H](CC[C@@H]4[C@@]5(C)CC=C(c6ccc(C(=O)O)cc6)C(C)(C)[C@@H]5CC[C@]43C)[C@@H]12`, the IC50 [1] is reported as 0.65 µM, the AUC(0-t) at 6 h [5] is reported as 4.39 µM·h and the CC50 [6] is reported as 30 µM.
With `C=C(C)[C@@H]1CC[C@]2(CNC(=O)CNC)CC[C@]3(C)[C@H](CC[C@@H]4[C@@]5(C)CC=C(c6ccc(C(=O)O)cc6)C(C)(C)[C@@H]5CC[C@]43C)[C@@H]12` the IC50 [1] was 0.027 µM, the AUC(0-t) at 6 h [5] was 0.54 µM·h and the CC50 [6] was 16 µM.
Compound `C=C(C)[C@@H]1CC[C@]2(CNCCN(C(C)C)C(C)C)CC[C@]3(C)[C@H](CC[C@@H]4[C@@]5(C)CC=C(c6ccc(C(=O)O)cc6)C(C)(C)[C@@H]5CC[C@]43C)[C@@H]12` has an IC50 [1] of 0.035 µM and a CC50 [6] of 3.7 µM.
In the case of `C=C(C)[C@@H]1CC[C@]2(CNCCCO)CC[C@]3(C)[C@H](CC[C@@H]4[C@@]5(C)CC=C(c6ccc(C(=O)O)cc6)C(C)(C)[C@@H]5CC[C@]43C)[C@@H]12`, the IC50 [1] is reported as 0.055 µM, the CC50 [6] is reported as 4.6 µM and the half-life at 0.5 µM [2] is reported as > 2 h. For the same compound, the half-life at 0.5 µM [3] was > 2 h.
Work on `C=C(C)[C@@H]1CC[C@]2(CNCCN(CCO)CCO)CC[C@]3(C)[C@H](CC[C@@H]4[C@@]5(C)CC=C(c6ccc(C(=O)O)cc6)C(C)(C)[C@@H]5CC[C@]43C)[C@@H]12` yielded an IC50 [1] of 0.0084 µM and a CC50 [6] of 6.8 µM.
In the case of `C=C(C)[C@@H]1CC[C@]2(CNCCN(CC)CC)CC[C@]3(C)[C@H](CC[C@@H]4[C@@]5(C)CC=C(c6ccc(C(=O)O)cc6)C(C)(C)[C@@H]5CC[C@]43C)[C@@H]12`, the IC50 [1] is reported as 0.035 µM, the CC50 [6] is reported as 20 µM and the half-life at 0.5 µM [2] is reported as 1.3 h. For the same compound, the half-life at 0.5 µM [3] was > 2 h and the half-life at 0.5 µM [4] was > 2 h.
Compound `C=C(C)[C@@H]1CC[C@]2(CNCCn3ccnc3)CC[C@]3(C)[C@H](CC[C@@H]4[C@@]5(C)CC=C(c6ccc(C(=O)O)cc6)C(C)(C)[C@@H]5CC[C@]43C)[C@@H]12` has an IC50 [1] of 0.0093 µM, an AUC(0-t) at 6 h [5] of 0.223 µM·h and a CC50 [6] of 12 µM.
With `C=C(C)[C@@H]1CC[C@]2(CNCCc3ccccn3)CC[C@]3(C)[C@H](CC[C@@H]4[C@@]5(C)CC=C(c6ccc(C(=O)O)cc6)C(C)(C)[C@@H]5CC[C@]43C)[C@@H]12` the CC50 [6] was 7.4 µM.
`C=C(C)[C@@H]1CC[C@]2(CNCCCN(C)c3ccccc3)CC[C@]3(C)[C@H](CC[C@@H]4[C@@]5(C)CC=C(c6ccc(C(=O)O)cc6)C(C)(C)[C@@H]5CC[C@]43C)[C@@H]12` showed an IC50 [1] of 0.06 µM, an AUC(0-t) at 6 h [5] of 0.962 µM·h and a CC50 [6] of 11 µM. For the same compound, the half-life at 0.5 µM [2] was > 2 h, the half-life at 0.5 µM [3] was > 2 h and the half-life at 0.5 µM [4] was > 2 h.
For `C=C(C)[C@@H]1CC[C@]2(CNCCCN(C)C)CC[C@]3(C)[C@H](CC[C@@H]4[C@@]5(C)CC=C(c6ccc(C(=O)O)cc6)C(C)(C)[C@@H]5CC[C@]43C)[C@@H]12`, the IC50 [1] was 0.2 µM, the AUC(0-t) at 6 h [5] was 0.01 µM·h and the CC50 [6] was 4.5 µM.
Work on `C=C(C)[C@@H]1CC[C@]2(CNCCNCCO)CC[C@]3(C)[C@H](CC[C@@H]4[C@@]5(C)CC=C(c6ccc(C(=O)O)cc6)C(C)(C)[C@@H]5CC[C@]43C)[C@@H]12` yielded an IC50 [1] of 0.02 µM, a CC50 [6] of 2 µM and a half-life at 0.5 µM [2] of 1.95 h. For the same compound, the half-life at 0.5 µM [3] was > 2 h.
With `C=C(C)[C@@H]1CC[C@]2(CNCCCN)CC[C@]3(C)[C@H](CC[C@@H]4[C@@]5(C)CC=C(c6ccc(C(=O)O)cc6)C(C)(C)[C@@H]5CC[C@]43C)[C@@H]12` the IC50 [1] was 0.04 µM, the CC50 [6] was 0.12 µM and the half-life at 0.5 µM [2] was > 2 h. For the same compound, the half-life at 0.5 µM [3] was > 2 h and the half-life at 0.5 µM [4] was > 2 h.
For `C=C(C)[C@@H]1CC[C@]2(CNCCCN3CCCCC3)CC[C@]3(C)[C@H](CC[C@@H]4[C@@]5(C)CC=C(c6ccc(C(=O)O)cc6)C(C)(C)[C@@H]5CC[C@]43C)[C@@H]12`, the IC50 [1] was 0.0064 µM, the CC50 [6] was 0.24 µM and the half-life at 0.5 µM [2] was 1.37 h. The half-life at 0.5 µM [3] was 1.32 h and the half-life at 0.5 µM [4] was 1.5 h.
`C=C(C)[C@@H]1CC[C@]2(CNCCN3CCN(C)CC3)CC[C@]3(C)[C@H](CC[C@@H]4[C@@]5(C)CC=C(c6ccc(C(=O)O)cc6)C(C)(C)[C@@H]5CC[C@]43C)[C@@H]12` showed an IC50 [1] of 0.014 µM and a CC50 [6] of 0.97 µM.
